In ChEMBL document CHEMBL4392874, “Inhibitory Effects of Phenylpropanoid Derivatives from Oenanthe javanica on Antigen-Stimulated Degranulation in RBL-2H3 Cells” (J Nat Prod, 2019) one finds Activity and inhibition data, which are given here for 5 compounds.

One data set deals with HeLa. As to the kind of experiment: Cytotoxicity against human HeLa cells assessed as reduction in cell viability at 12.5 to 100 ug/ml measured after 12 hrs by crystal violet staining based assay.
Data set [1] has as its system RBL-2H3. In words: Antiallergic activity in […]-stimulated rat RBL2H3 cells assessed as inhibition of anti-DNP-IgE-mediated degranulation by measuring decrease in beta-hexosaminidase activity preincubated for 20 mins followed by DNP-BSA stimulation. The class given is functional, cell-based.
Data set [2] concerns RBL-2H3. In words: Cytotoxicity against rat RBL2H3 cells assessed as reduction in cell viability at 6.3 to 50 ug/ml measured after 3 hrs by CCK8 assay. Type of data set: cell-based. The following applies: rbl-2h3, 3 h. On the technique in general: Tetrazolium assays rely on reduction of a dye to a coloured formazan, in cell work by metabolically active cells.
In data set [3] the test system is RBL-2H3. In words: Antiallergic activity in rat RBL2H3 cells assessed as inhibition of A23187-induced beta hexosaminidase release after 1 hr by para-nitrophenyl-N-acetyl-beta-d-glucosaminide substrate based assay. Type of data set: functional, cell-based.
Data set [4] deals with RBL-2H3. In words: Antiallergic activity in rat RBL2H3 cells assessed as inhibition of A23187/PMA-induced beta hexosaminidase release after 1 hr by para-nitrophenyl-N-acetyl-beta-d-glucosaminide substrate based assay. Type of data set: functional, cell-based.

`O=c1c(O)c(-c2ccc(O)c(O)c2)oc2cc(O)cc(O)c12` [QUERCETIN]: in the data set with HeLa, the Activity result was “Toxic”.
Turning to `O=C1O[C@H](c2ccc(O)cc2)[C@@H](C(=O)O)/C1=C\c1ccc(O)cc1`, the inhibition entry in the data set on RBL-2H3 [1], in the data set with RBL-2H3 [3] and in the data set on RBL-2H3 [4] was “Dose-dependent effect” each time. Also, the Activity entry in the data set on RBL-2H3 [2] and in the data set with HeLa was “Non-Toxic” in each case.
For `COc1cc(-c2oc3cc(O)cc(O)c3c(=O)c2O)ccc1O` [ISORHAMNETIN], the Activity entry with HeLa is given as “Non-Toxic”.
For `O=C(/C=C/c1ccc(O)c(O)c1)O[C@H]1[C@@H](C(=O)O)OC(C(=O)O)=C[C@H]1OC(=O)/C=C/c1ccc(O)c(O)c1`, the inhibition entry with RBL-2H3 [1], with RBL-2H3 [3] and in the data set on RBL-2H3 [4] was “Dose-dependent effect” each time. In addition, the Activity entry in the data set on RBL-2H3 [2] and in the data set with HeLa was “Non-Toxic” in each case.
Turning to `O=C(O)C(=Cc1ccc(O)cc1)/C=C/c1ccc(O)cc1` (mixture of isomers), the inhibition result in the data set on RBL-2H3 [1], in the data set with RBL-2H3 [3] and in the data set on RBL-2H3 [4] was “Dose-dependent effect” in each case. In addition, the Activity result in the data set on RBL-2H3 [2] and in the data set with HeLa was “Non-Toxic” each time.
